Results from patent US20240108612A1, “PHARMACEUTICAL COMPOSITION FOR ENHANCING ANTICANCER EFFECT OF PROTAC, INCLUDING IU1-SERIES UBIQUITIN-SPECIFIC PROTEASE 14 INHIBITOR AS ACTIVE INGREDIENT” (DAEGU GYEONGBUK INSTITUTE OF SCIENCE AND TECHNOLOGY, priority 2021, published 2024).
Peptide text beside a SMILES is read from it. * marks the point of attachment. Cbz = O=C(OCc1ccccc1)*

Experiments:
HeLa cells [1] = assay: Cancer cell colony formation assay in HeLa cells; format: cell-based; conditions: CDK9 PROTAC 10-100 nM and IU1-47 20 μM in combination; one week; FIG. 19
Method: Afterwards, the medium was replaced with a compound-containing medium, and then the cells were further cultured in the incubator under the same conditions for one week. The cultured cancer cells at the end were stained with 0.25% crystal violet staining solution containing 20% methanol for 1 hour, and then washed with ultrapure distilled water and dried at room temperature for one day. Cell images were captured using a camera or iBright CL750 (Thermo Fisher), the number of colonies was analyzed using iBright analysis software, and the size of colonies was analyzed using ImageJ software.
As another example to confirm the anticancer effect by the degradation of CDK9 protein enhanced by the combined treatment of the IU1-series compound and CDK9 PROTAC, which was confirmed in Examples as described above, different concentrations of CDK9 PROTAC (10, 25 , 50, 75, 100 nM) and IU1-47 (20 μM) compounds were used separately or in combination for treatment, and one week later, the degree of colony formation of HeLa cancer cells by the effect of enhancing CDK9 PROTAC protein degradation capability by IU1-series compound, was confirmed.

HeLa cells [2] = assay: Cancer cell migration assay in HeLa cells; format: cell-based; conditions: CDK9 PROTAC 40 nM and IU1-47 20 μM in combination; every 12 hours; FIG. 18
Method: Microscopic images were taken using an inverted fluorescence microscope (Olympus) through a 10× magnification lens every 12 hours, and the width of the intercellular region was measured using ImageJ software.
To this end, HeLa cells were treated with CDK9 PROTAC (40 nM) and IU1-47 (20 μM) compounds separately or in combination, and the migration of HeLa cells was confirmed every 12 hours.

CDK9 protein [3] = biological target: T1, CDK9 protein (Homo sapiens, UniProt P50750); assay: CDK9 protein degradation by Western blotting in HeLa cells; format: cell-based; design: endogenous in cells; host or cells: HeLa (ATCC); conditions: for Enhancement of degradation effect of CDK9 PROTAC, comparison with PR-619: PR-619 at different concentrations, FIG. 16; for CDK9 protein level when inhibitor is treated together with PROTAC and IU1: proteasome or autophagy inhibitor added to CDK9 PROTAC and IU1, FIG. 4C
Method: (§1) HeLa cells (cervical cancer cells) and LNCaP cells (prostate cancer cells) that were used for the experiments of the present disclosure were obtained from the American Type Culture Collection (ATCC), and were cultured in Dulbecco's Modified Eagle's Medium (DMEM, 1×) or RPMI-1640 (1×) medium, each containing 10% FBS, 1% penicillin/streptomycin and 1% L-glutamine, in a 37° C., 5% CO2 cell incubator. For experiments with PROTAC and deubiquitinase (DUB) inhibitors such as IU1 and IU1-47, 5×10^5 (HeLa) or 1×10^6 (LNCaP) cells were seeded into each well of a 12-well plate (Corning, #3513) one day before inhibitor treatment and then cultured in an incubator. Twenty-four hours after incubation, each well was replaced with medium containing serial dilutions of the compound and incubated under the same conditions for no more than 24 hours. As for all controls, the same amount of DMSO, which is a vehicle, was used for that of the compound treated with the experimental groups.
(§2) To prepare samples for Western blotting, HeLa and LNCaP cells were washed once with ice-cold PBS (1×) and lysed using RIPA buffer (ROCKLAND, MB-030-050) supplemented with protease inhibitor cocktail (Roche), 1 mM PMSF, and 1 mM DTT, or 1% SDS lysis buffer [1% (w/v) SDS, 10 mM Tris-HCl, 1 mM EDTA, pH 8.0]. All lysates were quantified by BCA protein assay (Thermo Fisher Scientific), and then 15 to 30 μg of each lysate was run by SDS-PAGE. Afterwards, the experiment was performed in the following order: transfer to PVDF membrane, treatment with a blocking solution (5% BSA or 5% non-fat dry milk in 1× TBST), treatment with designated primary antibody, and treatment with HRP-linked secondary antibody. Between treatments, washing was performed several times with excess 1× TBST. Each membrane was image-analyzed and quantified for protein signals using ChemiDoc (iBright750, Invitrogen).
Data obtained through Western blotting were quantified using iBright analysis software, and the levels of all target proteins were normalized with GAPDH. After quantification and normalization, DC50 values of the compounds used in the experiments of the present disclosure were derived through nonlinear regression using Graph Pad Prism software.

SHP-2 protein = biological target: T2, SHP-2 protein (Homo sapiens, UniProt Q06124); assay: SHP-2 protein degradation by Western blotting in HeLa cells; format: cell-based; conditions: IU1 in combination with SHP-2 PROTAC, FIGS. 12A, 12B
T2 construct: endogenous in cells; host or cells: HeLa (ATCC)
T2 sequence (Q06124 1-593): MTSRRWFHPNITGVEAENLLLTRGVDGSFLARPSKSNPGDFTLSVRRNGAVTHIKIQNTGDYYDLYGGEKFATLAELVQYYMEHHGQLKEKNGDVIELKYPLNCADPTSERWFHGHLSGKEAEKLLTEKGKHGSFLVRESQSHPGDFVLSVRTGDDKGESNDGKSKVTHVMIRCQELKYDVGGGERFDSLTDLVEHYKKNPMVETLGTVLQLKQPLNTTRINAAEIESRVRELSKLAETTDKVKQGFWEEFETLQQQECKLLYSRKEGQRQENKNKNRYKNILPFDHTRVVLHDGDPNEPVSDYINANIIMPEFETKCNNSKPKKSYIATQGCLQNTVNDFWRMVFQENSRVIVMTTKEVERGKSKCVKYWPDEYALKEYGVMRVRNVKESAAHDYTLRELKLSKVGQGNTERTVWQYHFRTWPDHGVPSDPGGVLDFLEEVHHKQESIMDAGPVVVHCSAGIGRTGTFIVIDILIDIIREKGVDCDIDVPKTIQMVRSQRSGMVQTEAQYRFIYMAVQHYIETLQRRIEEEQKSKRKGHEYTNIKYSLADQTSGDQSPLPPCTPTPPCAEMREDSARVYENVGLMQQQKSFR
Method: as §2
In addition, for SHP-2 PROTAC, which is another VHL-based PROTAC other than BRD4 PROTAC, it was confirmed whether the degradation effect for SHP-2 protein was enhanced under experimental conditions similar to those in the experiment in FIG. 7.

CDK9 protein [4] = biological target: T1, CDK9 protein; assay: CDK9 protein degradation by Western blotting in LNCaP cells; format: cell-based; design: endogenous in cells
Method: as §1, with “Twenty-four hours after incubation, each well was replaced with medium containing serial dilutions of the compound and incubated under the same conditions for no more than 24 hours. As for all controls, the same amount of DMSO, which is a vehicle, was used for that of the compound treated with the experimental groups.” left out
To prepare samples for Western blotting, HeLa and LNCaP cells were washed once with ice-cold PBS (1×) and lysed using RIPA buffer (ROCKLAND, MB-030-050) supplemented with protease inhibitor cocktail (Roche), 1 mM PMSF, and 1 mM DTT, or 1% SDS lysis buffer [1% (w/v) SDS, 10 mM Tris-HCl, 1 mM EDTA, pH 8.0]. All lysates were quantified by BCA protein assay (Thermo Fisher Scientific), and then 15 to 30 μg of each lysate was run by SDS-PAGE. […] Each membrane was image-analyzed and quantified for protein signals using ChemiDoc (iBright750, Invitrogen).
Data obtained through Western blotting were quantified using iBright analysis software, and the levels of all target proteins were normalized with GAPDH. […]

BRD4 protein = biological target: T3, BRD4 protein (Homo sapiens, UniProt O60885); assay: BRD4 protein degradation by Western blotting; format: cell-based; conditions: 50 μM IU1 with BRD4 PROTAC; 1% SDS lysis buffer or RIPA buffer; FIG. 11
T3 construct: endogenous in cells
Method: as §2
In order to determine whether the USP14 inhibitor of the present disclosure can enhance protein degradation capability for PROTACs other than CDK9 PROTACs, which were confirmed through experiments in Examples 2 and 4, it was confirmed whether the effect of degradation of BRD4 protein by BRD4 PROTAC was enhanced by IU1 treatment. […]

HeLa cells [5] = conditions: FIG. 8
Method: To measure cell viability by treatment with the compound of the present disclosure, HeLa and LNCaP cells were seeded in a 96-well plate (SPL, #33396) at 500 cells/well (HeLa) or 3000 cells/well (LNCaP). The cells were seeded and cultured in an incubator at 37° C. and 5% CO2. Twenty four hours later, the medium was replaced with compound-containing medium and incubated under the same conditions in an incubator for 48 hours. Afterwards, cell viability was measured through luminescence analysis in an Envision microplate reader (Perkin Elmer) using the ATP-lite 1 step assay kit (Perkin Elmer).
The results measured in the experiments to confirm cell viability were initially processed using Excel, and then the IC50 values were derived through nonlinear regression analysis using Prism software.

T1 sequence (P50750 whole entry): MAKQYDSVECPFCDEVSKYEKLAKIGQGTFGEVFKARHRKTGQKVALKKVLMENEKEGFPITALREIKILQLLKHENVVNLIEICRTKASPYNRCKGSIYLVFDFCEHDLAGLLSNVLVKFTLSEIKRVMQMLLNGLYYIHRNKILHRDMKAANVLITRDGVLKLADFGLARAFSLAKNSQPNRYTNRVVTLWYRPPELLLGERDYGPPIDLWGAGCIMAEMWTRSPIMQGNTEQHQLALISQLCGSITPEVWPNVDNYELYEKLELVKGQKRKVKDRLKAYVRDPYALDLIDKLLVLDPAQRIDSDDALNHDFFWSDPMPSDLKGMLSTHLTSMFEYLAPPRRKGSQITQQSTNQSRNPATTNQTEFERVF
T1 sequence (O60563 whole entry partner): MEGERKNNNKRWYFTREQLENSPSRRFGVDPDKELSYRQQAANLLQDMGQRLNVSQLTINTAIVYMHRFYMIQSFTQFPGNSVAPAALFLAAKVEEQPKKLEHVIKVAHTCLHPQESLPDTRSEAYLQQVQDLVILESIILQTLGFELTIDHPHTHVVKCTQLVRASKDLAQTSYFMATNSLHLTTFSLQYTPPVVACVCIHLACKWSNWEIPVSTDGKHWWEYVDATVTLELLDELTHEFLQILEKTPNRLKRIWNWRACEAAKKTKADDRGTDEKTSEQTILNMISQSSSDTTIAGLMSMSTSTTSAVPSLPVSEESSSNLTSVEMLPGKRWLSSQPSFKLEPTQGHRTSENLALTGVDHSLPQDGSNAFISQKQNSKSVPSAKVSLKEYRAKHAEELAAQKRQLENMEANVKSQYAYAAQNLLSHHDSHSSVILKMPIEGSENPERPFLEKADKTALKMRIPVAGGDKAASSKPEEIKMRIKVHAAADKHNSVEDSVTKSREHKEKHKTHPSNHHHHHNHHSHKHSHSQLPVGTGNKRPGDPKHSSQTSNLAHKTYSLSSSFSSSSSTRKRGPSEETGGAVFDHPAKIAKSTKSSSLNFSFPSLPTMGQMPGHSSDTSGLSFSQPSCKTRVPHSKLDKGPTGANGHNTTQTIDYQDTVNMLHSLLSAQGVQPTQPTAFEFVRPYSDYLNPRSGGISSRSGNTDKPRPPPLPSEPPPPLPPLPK

Cc1cc(C(=O)CN2CCCCC2)c(C)n1-c1ccc(Cl)cc1 [IU1-47, 1-[1-(4-chlorophenyl)-2,5-dimethyl-1H-pyrrol-3-yl]-2-(1-piperidinyl)ethanone]
Colony formation of HeLa cancer cells, combination versus either alone (HeLa cells [1]): significantly inhibited | Migration or wound healing effect of HeLa cells, combination versus either alone (HeLa cells [2]): significantly inhibited | Enhancement of protein degradation of PROTAC from DC50 values, versus CDK9 PROTAC alone (CDK9 protein [3]; HeLa, 20 μM IU1-47 in combination with CDK9 PROTAC, FIG. 13C): about 6 times | Enhancement of degradation of PROTAC, CDK9 PROTAC concentration fixed (CDK9 protein [3]; HeLa, CDK9 PROTAC 5, 10, 20 nM, varying IU1-47, FIG. 14): significantly enhanced the degradation of PROTAC in a concentration-dependent manner | CDK9 degradation on treatment with IU1-47 alone (CDK9 protein [3]; HeLa, FIG. 14): did not result in any degradation of CDK9 | Enhancement of protein degradation capability of CDK9 PROTAC versus vehicle (CDK9 protein [3]; HeLa, IU1-47 10 μM, 20 µM, 30 μM, CDK9 PROTAC 0.1-250 nM, FIGS. 13A, 13B): significantly enhanced at all concentrations of IU1-47 | Enhancement of degradation effect of CDK9 PROTAC, comparison with P50429 (CDK9 protein [3]; HeLa, IU1-47 20 μM, FIG. 17): significantly enhanced the degradation effect of PROTAC | Enhancement of degradation effect of CDK9 PROTAC, comparison with PR-619 (CDK9 protein [3]; HeLa): significantly enhanced the degradation effect of PROTAC | Targeted protein degradation capability of PROTAC, IU1-47 compared with IU1 (CDK9 protein [3]; in combination with PROTAC, see Example 6): more increased compared to when IU1 was treated in combination with PROTAC

Cc1cc(C(=O)CN2CCCC2)c(C)n1-c1ccc(F)cc1 [IU1, 1-[1-(4-fluorophenyl)-2,5-dimethylpyrrol-3-yl]-2-pyrrolidin-1-ylethanone]
Enhancement of SHP-2 protein degradation by SHP-2 PROTAC (SHP-2 protein): SHP-2 PROTAC concentration-dependent enhancement of SHP-2 protein degradation | Enhancement of CDK9 degradation effect by CDK9 PROTAC, IU1 concentration fixed (CDK9 protein [4]; IU1 10, 25, 75, 100 μM (all concentrations), CDK9 PROTAC 1-50 nM, FIGS. 10A, 10B): enhanced the CDK9 degradation effect by CDK9 PROTAC in a PROTAC concentration-dependent manner | Degradation effect for CDK9 protein, combination versus CDK9 PROTAC alone (CDK9 protein [4]; IU1 and CDK9 PROTAC in combination, FIG. 9): significantly increased | Enhancement of BRD4 protein degradation effect of BRD4 PROTAC (BRD4 protein): concentration-dependent enhancement of the BRD4 protein degradation effect | Enhancement of protein degradation capability of CDK9 PROTAC through the DC50 value, versus vehicle control (CDK9 protein [3]; HeLa, 75 μM of IU1 in combination): about 5 times | Time-dependent effect on degradation effect of CDK9 PROTAC (CDK9 protein [3]; HeLa, CDK9 PROTAC 100 nM, IU1 50 μM, 0, 1, 3, 6, 12, 24 h, FIG. 15): accelerated the degradation effect of PROTAC | Enhancement of CDK9 protein degradation capability by CDK9 PROTAC versus vehicle control (CDK9 protein [3]; HeLa, CDK9 PROTAC 0.1-250 nM, especially high concentration of IU1, FIGS. 7A, 7B): highly enhanced the CDK9 protein degradation capability | Enhancement of protein degradation effect, CDK9 PROTAC concentration fixed (CDK9 protein [3]; HeLa, CDK9 PROTAC 5, 10, 20, 25 nM, IU1 10-100 μM, FIGS. 6A, 6B): the protein degradation effect was enhanced in an IU1 concentration-dependent manner at all concentrations | CDK9 protein degradation effect of CDK9 PROTAC on combined treatment (CDK9 protein [3]; HeLa, IU1 50 μM with CDK9 PROTAC 1, 10, 25, 50, 100 nM, FIG. 4A): substantially increased | Enhancement of CDK9 degradation effect by CDK9 PROTAC, IU1 concentration fixed (CDK9 protein [3]; HeLa, IU1 10, 25, 75, 100 μM, CDK9 PROTAC 1-100 nM, FIGS. 5A, 5B): enhanced the CDK9 degradation effect by CDK9 PROTAC in a PROTAC concentration-dependent manner at all concentrations except for the IU1 concentration at 10 μM | CDK9 protein degradation on treatment with IU1 alone (CDK9 protein [3]; HeLa, maximum IU1 treatment concentration 50 μM, FIG. 4B): degradation of CDK9 protein did not occur | Anticancer effect of CDK9 PROTAC (IC50, cell growth inhibition) with IU1 in combination (HeLa cells [5]): significantly increased

CS(=O)(=O)c1ccc(NC(=O)c2cc(C#N)c(Sc3c(Cl)cncc3Cl)s2)cc1 [P50429, reference compound]
Enhancement of degradation effect of CDK9 PROTAC (CDK9 protein [3]; HeLa, P50429 1 μM and 10 μM with CDK9 PROTAC, FIG. 17): did not enhance the degradation effect of PROTAC

CO/C1=C\C(C)=C\[C@@H](C)[C@@H](O)[C@@H](C)C/C(C)=C/C=C/[C@H](OC)[C@@H]([C@@H](C)[C@@H](O)[C@H](C)[C@@]2(O)C[C@@H](O)[C@H](C)[C@@H](C(C)C)O2)OC1=O [bafilomycin A1, reference compound]
CDK9 protein level when inhibitor is treated together with PROTAC and IU1 (CDK9 protein [3]): the degradation of CDK9 protein by the treatment with PROTAC and IU1 was still observed

N#CSc1cc(SC#N)c(N)nc1N [PR-619, reference compound]
Enhancement of degradation effect of CDK9 PROTAC, comparison with PR-619 (CDK9 protein [3]; HeLa): did not show the effect of enhancing the protein degradation of PROTAC at all treatment concentrations

CC(C)C[C@@H](C=O)NC(=O)[C@H](CC(C)C)NC(=O)[C@H](CC(C)C)NC(=O)OCc1ccccc1 [MG132, reference compound] (Cbz-Leu-Leu-Leu-aldehyde)
CDK9 protein level when inhibitor is treated together with PROTAC and IU1 (CDK9 protein [3]): the level of CDK9 protein was recovered similar to the control group
